As a reminder, the EC50 is the concentration at which the effect is half-maximal. Low values mean greater potency, high ones weaker potency. The melting point is the temperature, or range, at which the solid turns liquid. A word on the IC50: it is the concentration that inhibits the measured activity by half.

This is an account of results in US8536332B2, “Modulating signal transduction pathways with substituted pyridol [2,3-b] pyrazines” (Aeterna Zentaris GmbH, priority 2007, dated 2013).

For data set [1], the system named is Hct116. Put plainly: XTT assay, anti-proliferative activity, Hct116. It is filed as cell-based. The note with it: Homo sapiens, HCT-116; 45 h incubation. Here is the method:
(§1) The principle of this test is based on the intracellular reduction of the tetrazolium dye XTT (sodium 3′-[1-(phenylaminocarbonyl)-3,4-tetrazolium]bis(4-methoxy-6-nitro)benzenesulphonic acid, Sigma) to a formazan dye by mitochondrial dehydrogenases. The dye is formed only by metabolically active cells. Its photometrically measurable intensity is a quantitative indicator for the presence of living cells. The reduction in the dye formation as a result of incubation of the cells with substances serves as a parameter for the anti-proliferative activity.
(§2) The tumour cell lines (ATCC) were seeded in 96-well microtitre plates in a defined cell count (5000 cells/well for Hct116; 10000 cells/well for MDA MB468), and incubated overnight at 37° C., 5% CO2 and 95% air humidity. The test substances were made up as stock solutions (10 mM) in DMSO. […] The cell plates were then incubated for 45 h at 37° C., 5% CO2 and 95% air humidity.
(§3) For the detection reaction, the XTT substrate was mixed with PMS (N-methyldibenzopyrazine methylsulphate, Sigma) and added to the cells, to result in a final concentration of 325 μg of XTT/ml and 2.5 μg PMS/ml. The mixture was then incubated for 3 h at 37° C., 95% air humidity. Subsequently the formazan salt formed by cellular dehydrogenases was quantified at an absorption of 490 nm.
(§4) The evaluation of the % inhibition values was done by means of the following formula from the values for the optical densities measured in each case at 490 nm:
(§5) The controls were determined 8 fold, the substance samples 2 fold. 0% control contained no cells and the 100% control contained no test substance. The EC50 values were determined with GraphPadPrism.
(In general: Tetrazolium dyes change colour on reduction, which living cells bring about.)

The subject of data set [2] is MDA-MB468. Briefly: XTT assay, anti-proliferative activity, MDA-MB468. It is filed as cell-based. To be noted: Homo sapiens, MDA-MB-468; 45 h incubation. Here is the method: as §1, §2, §3, §4, §5
Data set [3] addresses p38alpha (Homo sapiens, UniProt Q16539). Briefly: Cell-free kinase assay (ALPHA technology) p38alpha. It is filed as biochemical. To be noted: 10 μM ATP. As to the method: (§6) The inhibitory effect of the compounds of the invention was tested on various human serine/threonine kinases, tyrosine kinases and lipid kinases in enzymatic assays. Recombinant human kinases, for example PI3Kalpha, -beta, -gamma, -delta, Erk2, p38alpha, p38gamma, Jnk1, Jnk2 and others were used, in some cases as full-length kinases, in some cases as truncated fragments—but at least consisting of the functional kinase domains. The commercial kinase proteins (Proqinase, Upstate) were used as recombinant fusion proteins with GST (glutathione S-transferase) tag or His tag. Depending on the substrate type, the different kinase reactions were quantified by suitable ALPHA™ beads (PerkinElmer).
(§7) The kinase assays for PI3K and Erk are described in detail and selected test results are cited below. […] Subsequently, the kinase reaction was stopped by adding the ALPHA bead mix (10 μg/ml, #6760603/PerkinElmer), preincubated with 1 nM GST:Grp1 fusion protein (Upstate) and […] (#C-39B6/Echelon) in 50 mM Hepes, 50 mM NaCl, 50 mM EDTA and 0.1% BSA, and left to stand overnight. • b) Erk2-ALPHA: The test substance, 0.625 ng of Erk2 (#14-173, Upstate), 10 μM ATP and 15 nM biotinylated MBP (myelin basic protein) substrate were incubated on a 384-well Optiplate (Perkin Elmer) in a volume of 15 μl for 1 h in 25 mM Tris, 10 mM MgCl2, 0.1% Tween-20, 100 μM NaVO4, 2 mM DTT at pH 7.5. The kinase reaction was stopped by adding 10 μl of the ALPHA bead mix (10 μg/ml, #6760617/PerkinElmer), pre-incubated with anti-phospho MBP antibody (320 pM, #05-429/Upstate), in 25 mM Tris, 200 mM NaCl, 100 mM EDTA and 0.3% BSA, and left to stand overnight.
(§8) The luminiscence was detected the next morning in a Fusion™ alpha instrument (Perkin Elmer).
(§9) The calculation of % inhibition values per substance concentration was done by means of the following formula from the raw data determined in the Fusion™ alpha:
(§10) The controls were determined 8 fold and the substance samples 2 fold. 0% control contained neither any ATP nor any substrate. The 100% control contained no test substance. The IC50 values were determined with GraphPadPrism.

The target in data set [4] is T1, Erk2 (Mus musculus, UniProt P63085).
T1 construct: purchased Upstate #14-173
T1 sequence (P63085 whole entry): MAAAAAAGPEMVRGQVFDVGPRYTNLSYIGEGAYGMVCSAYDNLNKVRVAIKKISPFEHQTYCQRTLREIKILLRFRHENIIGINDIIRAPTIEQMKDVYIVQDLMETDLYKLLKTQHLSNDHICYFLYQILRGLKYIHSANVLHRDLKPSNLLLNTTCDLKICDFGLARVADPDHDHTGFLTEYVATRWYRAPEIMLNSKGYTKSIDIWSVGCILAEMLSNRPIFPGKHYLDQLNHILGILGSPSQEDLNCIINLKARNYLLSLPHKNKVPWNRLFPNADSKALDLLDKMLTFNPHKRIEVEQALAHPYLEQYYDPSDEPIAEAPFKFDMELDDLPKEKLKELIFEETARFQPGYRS
Briefly: Cell-free kinase assay Erk2-ALPHA. It is filed as biochemical, human. The note with it: 10 μM ATP. As to the method: as §6, §7, §8, §9, §10

The subject of data set [5] is T2, Jnk1 + Jnk2.
T2 construct: fused on or other part: GST tag or His tag (commercial recombinant fusion proteins from Proqinase or Upstate)
Put plainly: Cell-free kinase assay (ALPHA technology) Jnk1 + Jnk2. The format is biochemical, human. To be noted: 10 μM ATP. As to the method: as §6, §7, §8, §9, §10

p38alpha, sequence (Q16539 whole entry, the tested form may be a part): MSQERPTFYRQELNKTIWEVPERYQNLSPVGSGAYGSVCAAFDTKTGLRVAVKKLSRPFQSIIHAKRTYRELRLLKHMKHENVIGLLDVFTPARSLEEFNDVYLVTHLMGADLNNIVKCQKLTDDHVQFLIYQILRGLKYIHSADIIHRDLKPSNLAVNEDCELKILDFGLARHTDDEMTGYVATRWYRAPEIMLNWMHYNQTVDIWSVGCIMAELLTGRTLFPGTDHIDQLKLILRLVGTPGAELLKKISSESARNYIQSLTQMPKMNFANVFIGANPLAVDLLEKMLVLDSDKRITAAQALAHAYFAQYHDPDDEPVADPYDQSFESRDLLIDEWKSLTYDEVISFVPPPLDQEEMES

Take `CCNC(=S)Nc1ccc2ncc(-c3ccc(N)c(OC)c3)nc2n1` [Compound 140, 1-[3-(4-Amino-3-methoxy-phenyl)-pyrido[2,3-b]pyrazin-6-yl]-3-ethyl-thiourea]: the EC50 in data set [1] and in data set [2] was below 5 µM throughout.
Consider `CCNC(=S)Nc1ccc2ncc(-c3cc(OC)c(OC)c(OC)c3)nc2n1` [Compound 134, 1-Ethyl-3-[3-(3,4,5-trimethoxy-phenyl)-pyrido[2,3-b]pyrazin-6-yl]-thiourea], for which the melting point was 230 °C. In data set [1], this compound returned an EC50 below 5 µM. Further, the EC50 in data set [2] was below 5 µM.
`CCNC(=S)Nc1ccc2ncc(Nc3ccccc3)nc2n1` [Compound 148, 1-Ethyl-3-(3-phenylamino-pyrido[2,3-b]pyrazin-6-yl)-thiourea] registered a melting point of 285 °C. This compound also showed an EC50 in data set [1] below 10 µM. Moreover, in data set [2], the concentration giving a half-maximal response (EC50) is below 5 µM.
Compound `CCNC(=S)Nc1ccc2ncc(Nc3ccc(O)c(OC)c3)nc2n1` [Compound 150, 1-Ethyl-3-[3-(4-hydroxy-3-methoxy-phenylamino)-pyrido[2,3-b]pyrazin-6-yl]-thiourea] came in with a melting point of 269 °C. In data set [1], this compound came in with an EC50 below 5 µM. In data set [2], the EC50 was below 5 µM.
On to `CC(C)(C)NC(=O)Nc1cnc2ccc(-c3cc(Cl)c(O)c(Cl)c3)nc2n1` [Compound 553, 1-tert-Butyl-3-[6-(3,5-dichloro-4-hydroxy-phenyl)-pyrido[2,3-b]pyrazin-3-yl]-urea], for which the melting point lay in the range of 251 to 253 °C. In data set [3], this compound displayed a half-maximal inhibitory concentration (IC50) above 100 µM. In addition, the EC50 in data set [1] was below 5 µM. Besides, the IC50 in data set [4] is above 100 µM. Besides, the IC50 in data set [5] was below 100 µM. Besides, the EC50 in data set [2] is below 5 µM.
Turning to `COc1cc(-c2ccc3ncc(NC(=O)NCCCl)nc3n2)ccc1O` [Compound 173, 1-(2-Chloro-ethyl)-3-[6-(4-hydroxy-3-methoxy-phenyl)-pyrido[2,3-b]pyrazin-3-yl]-urea], the melting point was in the range of 215 to 218 °C. Moreover, the IC50 in data set [3] is below 50 µM. For the same compound, the EC50 in data set [1] is below 1 µM. This compound also returned an IC50 in data set [4] below 50 µM. Also, the IC50 in data set [5] is below 31.6 µM. The EC50 in data set [2] was below 1 µM.
As to `CCNC(=S)Nc1ccc2ncc(Nc3ccc(C)cc3)nc2n1` [Compound 126, 1-Ethyl-3-(3-p-tolylamino-pyrido[2,3-b]pyrazin-6-yl)-thiourea], the melting point turned out to be 278 °C. Further, the EC50 in data set [1] was below 5 µM. The compound also came in with an EC50 in data set [2] below 5 µM.
`CNC(=S)Nc1cnc2ccc(-c3ccc(O)c(OC)c3)nc2n1` [Compound 526, 1-[6-(4-Hydroxy-3-methoxy-phenyl)-pyrido[2,3-b]pyrazin-3-yl]-3-methyl-thiourea]: the melting point was 279 to 280 °C. The IC50 in data set [3] is below 50 µM. In data set [1], this compound registered an EC50 below 5 µM. In data set [4], this compound gave an IC50 above 100 µM. Also, the IC50 in data set [5] was above 100 µM. In addition, the concentration giving a half-maximal response (EC50) in data set [2] is below 1 µM.
As to `COc1cc(-c2ccc3ncc(NC(=O)Nc4ccncc4)nc3n2)ccc1O` [Compound 176, 1-[6-(4-Hydroxy-3-methoxy-phenyl)-pyrido[2,3-b]pyrazin-3-yl]-3-pyridin-4-yl-urea], the melting point fell in the range of 234 to 237 °C. In data set [3], this compound showed an IC50 below 50 µM. In data set [1], this compound came in with an EC50 below 1 µM. Further, in data set [4], the IC50 was above 31.6 µM. Besides, the IC50 in data set [5] is below 50 µM. This compound came in with an EC50 in data set [2] below 1 µM.
In turn, `COc1cc(Nc2cnc3ccc(NC(=S)NC4CCCC4)nc3n2)cc(OC)c1OC` [Compound 509, 1-Cyclopentyl-3-[3-(3,4,5-trimethoxy-phenylamino)-pyrido[2,3-b]pyrazin-6-yl]-thiourea] registered a melting point of 246 °C. This compound returned an IC50 in data set [3] above 100 µM. Also, the EC50 in data set [1] is below 5 µM. The same compound gave an IC50 in data set [4] above 100 µM. In addition, the IC50 in data set [5] was above 100 µM. Also, the EC50 in data set [2] was below 5 µM.
Take `COc1cc(-c2ccc3ncc(NC(=O)NC4CCN(C(=O)C(F)(F)F)CC4)nc3n2)ccc1O` [Compound 30, 1-[6-(4-Hydroxy-3-methoxy-phenyl)-pyrido[2,3-b]pyrazin-3-yl]-3-[1-(2,2,2-trifluoro-acetyl)-piperidin-4-yl]-urea]: the melting point lay in the range of 236 to 239 °C. Also, the IC50 in data set [3] was below 10 µM. The compound also displayed an IC50 in data set [4] below 10 µM. Further, the IC50 in data set [5] is below 31.6 µM.
The compound `CNC(=O)Nc1cnc2ccc(-c3ccc(OC)c(OC)c3)nc2n1` [Compound 566, 1-[6-(3,4-Dimethoxy-phenyl)-pyrido[2,3-b]pyrazin-3-yl]-3-methyl-urea] showed a melting point of 253 to 255 °C. The compound also returned an IC50 in data set [3] above 31.6 µM. Besides, in data set [1], the EC50 was below 5 µM. The IC50 in data set [4] is above 100 µM. The IC50 in data set [5] was above 100 µM. In data set [2], this compound gave an EC50 below 5 µM.
As to `CCNC(=O)Nc1ccc2ncc(-c3cccs3)nc2n1` [Compound 152, 1-Ethyl-3-(3-thiophen-2-yl-pyrido[2,3-b]pyrazin-6-yl)-urea], the melting point was in the range of 227 to 228 °C. Also, in data set [1], the EC50 is below 10 µM. This compound yielded an EC50 in data set [2] below 10 µM.
Take `CCNC(=O)Nc1cnc2ccc(-c3ccc(O)c(Cl)c3)nc2n1` [Compound 637, 1-[6-(3-Chloro-4-hydroxy-phenyl)-pyrido[2,3-b]pyrazin-3-yl]-3-ethyl-urea]: the melting point was above 270 °C. This compound gave an IC50 in data set [3] above 100 µM. Besides, the EC50 in data set [1] was below 10 µM. Besides, in data set [4], the IC50 was above 100 µM. Besides, in data set [5], the half-inhibitory concentration (IC50) was above 100 µM. This compound showed an EC50 in data set [2] below 10 µM.
`CCNC(=O)Nc1ccc2ncc(Nc3cccc(OC)c3)nc2n1` [Compound 89, 1-Ethyl-3-[3-(3-methoxy-phenylamino)-pyrido[2,3-b]pyrazin-6-yl]-urea] showed a melting point of 216 to 219 °C. Besides, in data set [1], the EC50 was below 5 µM. Moreover, the EC50 in data set [2] is below 5 µM.
With `O=C(Nc1cnc2ccc(-c3cc(Cl)c(O)c(Cl)c3)nc2n1)NC1CCCC1` [Compound 563, 1-Cyclopentyl-3-[6-(3,5-dichloro-4-hydroxy-phenyl)-pyrido[2,3-b]pyrazin-3-yl]-urea], the melting point fell in the range of 262 to 264 °C. Further, in data set [1], the EC50 was below 1 µM. Besides, in data set [4], the IC50 was above 100 µM. Also, in data set [2], the EC50 is below 1 µM.
In the case of `CCNC(=S)Nc1ccc2ncc(-c3cc(Cl)c(O)c(Cl)c3)nc2n1` [Compound 138, 1-[3-(3,5-Dichloro-4-hydroxy-phenyl)-pyrido[2,3-b]pyrazin-6-yl]-3-ethyl-thiourea], the EC50 in data set [1] and in data set [2] was below 10 µM each time.
Compound `CCNC(=S)Nc1ccc2ncc(-c3cnn(C)c3)nc2n1` [Compound 113, 1-Ethyl-3-[3-(1-methyl-1H-pyrazol-4-yl)-pyrido[2,3-b]pyrazin-6-yl]-thiourea] had a melting point of 242 °C. For the same compound, the 50% effective concentration (EC50) in data set [1] was below 5 µM. Further, the EC50 in data set [2] is below 5 µM.
Regarding `COc1cc(-c2ccc3ncc(NC(=O)NC4CCCC4)nc3n2)ccc1O` [Compound 20, 1-Cyclopentyl-3-[6-(4-hydroxy-3-methoxy-phenyl)-pyrido[2,3-b]pyrazin-3-yl]-urea], the melting point was in the range of 222 to 225 °C. In addition, in data set [3], the IC50 is above 100 µM. Besides, in data set [4], the IC50 was above 100 µM. In data set [5], the IC50 was above 100 µM.
